Reference: patent US20250255845A1, “USE OF INTERLEUKIN (IL)-17A INHIBITOR IN PREPARATION OF MEDICAMENT FOR TREATING INFLAMMATORY DISEASE” (Xiangnan University, priority 2024, published 2025)

Assays:
[1] = system: NO; experiment: Griess assay of LPS-induced NO production in RAW264.7 cells; assay type: cell-based, mouse
Procedure: (§1) RAW264.7 cell culture: mouse mononuclear macrophages (RAW264.7, ATCC) are cultured in a complete medium containing 10% fetal bovine serum (FBS), 1% double antibodies (penicillin and streptomycin), and 89% DMEM at 37° C. and 5% CO2. In this experiment, RAW264.7 cells from passages 3 to 8 are used for related test.
(§2) LPS (100 ng/ml) is added for stimulation, with or without Tan, and the cell supernatant is collected to detect the contents of NO, IL-23, IL-17A, TNF-α, and IL-6 in the cell supernatant. The cell lysate is collected and the protein expressions (STAT3, p-STAT3 (Ser727), and p-STAT3 (Tyr705)) are detected by Western blot. Total cell RNA is extracted and real-time fluorescence quantitative polymerase chain reaction (PCR) is conducted to detect the expression levels of IL-23, IL-17A, TNF-α, and IL-6 mRNA.
RAW264.7 cells in the logarithmic growth phase were inoculated into a 48-well plate and the cell density was adjusted to 1.0×10^5 cells/well. After cultured for 24 h, the cells were stably adhered to the plate. The original medium was removed and different concentrations (5, 10, 20, 40 μM) of Tan were added to allow pretreatment for 1 h. […] OD540 nm value of the cell supernatant was detected according to the instructions of a Griess kit, and the NO content in the cell supernatant was calculated.

[2] = system: TNF-α; experiment: ELISA of LPS-induced TNF-α secretion in RAW264.7 cells; assay type: cell-based, mouse
Procedure: as §1, §2
RAW264.7 cells in the logarithmic growth phase were inoculated into a 6-well plate and the cell density was adjusted to 5.0×10^5 cells/well. After culturing for 24 h, the cells were stably adhered to the plate. The original medium was removed and different concentrations (5, 10, 20, 40 μM) of Tan were added to allow pretreatment for 1 h. […] The OD450 nm value of the cell supernatant was detected according to the instructions of the TNF-α and IL-6 ELISA kits, and the content of pro-inflammatory factors (TNF-α and IL-6) in the cell supernatant was calculated.

[3] = system: IL-23 mRNA; experiment: Real-time fluorescence quantitative PCR, LPS-induced IL-23 mRNA in RAW264.7 cells; assay type: cell-based, mouse
Procedure: as §1, §2
(§3) RAW264.7 cells were inoculated into 6-well plate and the cell density was adjusted to 5.0×10^6 cells/well. […] The fluorescence intensity of each sample was detected according to the instructions of the real-time fluorescence quantitative PCR kit and specific primers (Table 1) (cycle conditions: enzyme activation 95° C. for 3 min, 1 cycle; denaturation 95° C. for 15 s, annealing/extension 60° C. for 1 min, 40 cycles). The mRNA expression level of each group was normalized with the GAPDH expression level, and the relative expression of mRNA was calculated using the 2^−ΔΔCt method.

[4] = system: TNF-α mRNA; experiment: Real-time fluorescence quantitative PCR, LPS-induced TNF-α mRNA in RAW264.7 cells; assay type: cell-based, mouse
Procedure: as §1, §2, §3

[5] = system: PCNA; experiment: Immunohistochemistry of PCNA in dorsal skin of IMQ-induced psoriasis mice; assay type: in vivo, Balb/c mice; settings: preventive and therapeutic administration groups; dose-dependent
Procedure: Balb/c mice (female, 6-8 weeks, 20+2 g), with certificate number [SCXK (Xiang) 2021-0002], were purchased from Hunan SJA Laboratory Animal (Changsha, China). All mice were housed in an specific pathogen free (SPF)-grade animal room with a 12 h light/12 h dark cycle, and experiments were started after the mice were acclimated for one week. Next, 96 mice were randomly divided into 12 groups (8 mice/group), including Control group, Control solvent (white vaseline) group, IMQ group, IMQ solvent (white vaseline) group, preventive administration of positive medicament Clo group (IMQ+Clo 55 mg), therapeutic administration of positive medicament group (IMQ+Clo (A) 55 mg), preventive administration of Tan low-dose group (IMQ+Tan 40 μg/cm^2), medium-dose group (IMQ+Tan160 μg/cm^2), and high-dose group (IMQ+Tan 640 μg/cm^2), and therapeutic administration of Tan low-dose group (IMQ+Tan (A) 40 μg/cm^2), medium-dose group (IMQ+Tan (A) 160 μg/cm^2), and high-dose group (IMQ+Tan (A) 640 μg/cm^2). After the mice were anesthetized, a 2 cm×3 cm area on the back was selected for hair removal. Modeling began 48 h after hair removal, and all modeling mice were applied with 65 mg (55 mg on the back and 5 mg on each ear) of IMQ cream every morning for 10 d. […]

[6] = 5-40 μM, 24 h, vs LPS group, P<0.001, dose-dependent
[7] = 5-40 μM, 24 h, vs LPS, P<0.001, dose-dependent

COc1ccc(-c2cc(=O)c3c(OC)c(OC)c(OC)c(OC)c3o2)cc1 [Tan, tangeretin]
inhibitory effect on NO compared with positive control Clo ([1]; 40 μM, 24 h): comparable to that of the positive control | NO content in the cell supernatant [1, 6]: significantly reduced | inhibitory effect on the production of NO ([1]; 48 h): strong inhibitory effect | inhibitory effect on TNF-α secretion compared with positive control Clo ([2]; 40 μM): comparable to that of the positive control | TNF-α level in the cell supernatant [2, 6]: significantly decreased | inhibitory effect on IL-23 mRNA compared with positive control Clo ([3]; 40 μM): comparable to that of the positive control Clo | relative expression level of IL-23 mRNA [3, 7]: significantly decreased | inhibitory effect on TNF-α mRNA compared with positive control Clo ([4]; 40 μM): comparable to that of the positive control Clo | relative expression level of TNF-α mRNA [4, 7]: significantly decreased | expression level of PCNA in the dorsal skin [5]: significantly reduced
